The results in this text go back to patent publication US20030216358A1, “Method for enhancing bone mineral density gain” (priority 2003, published 2003).

Each structure is given as a SMILES string.

The subject of the assay is postmenopausal women. The assay is described as follows: Clinical data, summary in words: BMD and bone turnover markers after alendronate followed by raloxifene. It counts as in vivo, human. To be noted: alendronate for one year followed sequentially by raloxifene alone.

Method: A phase 3, multicenter, double-blind, placebo-controlled, randomized clinical trial was conducted. Objectives of the trial included comparing the effects of 12 months treatment with raloxifene HCl (60 mg/day), alendronate (10 mg/day), or the combination of the two agents together versus placebo on BMD at the lumbar spine and at the hip and also metabolic markers of bone turnover. Additional objectives included comparing the effects of raloxifene 60 mg/day versus placebo during a second year of study on the offset of action of raloxifene or alendronate, as assessed by these same efficacy parameters.
Three hundred thirty-one (331) subjects were randomly assigned to one of four initial treatment groups: placebo, raloxifene 60 mg/day, alendronate 10 mg/day or raloxifene plus alendronate together. After one year of therapy all subjects were re-randomized to receive either placebo or raloxifene 60 mg/day for an additional year of study. All subjects received approximately 500 mg of elemental calcium plus 400-600 I.U. of vitamin D/day throughout the entire study. […] In addition subjects had BMD and biochemical markers of bone turnover (including serum osteocalcin) repeated at six monthly intervals.

`O=C(c1ccc(OCCN2CCCCC2)cc1)c1c(-c2ccc(O)cc2)sc2cc(O)ccc12` [raloxifene, 6-hydroxy-2-(4-hydroxyphenyl)-3-[4-(2-piperidinoethoxy)benzoyl]-benzo[b]thiophene]: the bone turnover markers entry is given as “either return towards normal or remain suppressed but do not further decrease”. Further, under “compared to alendronate followed by placebo”, the BMD entry is given as “further increases of BMD”.
